The assay has as its target T1, CCR2b (Homo sapiens, UniProt P41597).
T1 construct: host or cells: AequoScreen CCR2b cells
T1 sequence (P41597 1-360 isoform P41597-2): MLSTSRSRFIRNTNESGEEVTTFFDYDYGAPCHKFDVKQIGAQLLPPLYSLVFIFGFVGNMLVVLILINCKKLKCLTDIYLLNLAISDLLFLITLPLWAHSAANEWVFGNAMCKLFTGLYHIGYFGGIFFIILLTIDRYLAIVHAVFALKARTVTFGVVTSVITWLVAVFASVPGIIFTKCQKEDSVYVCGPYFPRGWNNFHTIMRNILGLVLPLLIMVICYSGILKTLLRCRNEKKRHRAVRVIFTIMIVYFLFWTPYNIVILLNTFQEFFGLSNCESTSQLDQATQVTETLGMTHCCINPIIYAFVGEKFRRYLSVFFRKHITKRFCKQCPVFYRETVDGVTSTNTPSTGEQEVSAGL
In words: AequoScreen assay, Ca++ flux (antagonist mode against reference agonist MCP-1). The settings on record: AequoScreen CCR2b (FAST-060A) cells; inhibition of reference agonist MCP-1 at its EC80. The assay is classed as cell-based. As for the experimental part:
The biological activity of the compounds described herein can be evaluated using assays known in the art, such as the AequoScreen™ assay.
AequoScreen™ CCR2b (FAST-060A) cells grown to mid-log phase in culture media without antibiotics are detached with PBS-EDTA, centrifuged and resuspended in assay buffer (DMEM/HAM's F12 with HEPES, without phenol red+0.1% BSA protease free) at a concentration of 1×10^6 cells/mL. Cells are incubated at room temperature for at least 4 hours with coelenterazine h. Dose response curves are performed before testing. The reference agonist is MCP-1.
For agonist testing, 50 μL of cell suspension is mixed with 50 μL of test compound in a 96-well plate. The resulting emission of light is recorded using a Hamamatsu Functional Drug Screening System 6000 (FDSS 6000).
Following an incubation of 15 minutes after the first injection, 100 μL of the resulting cell suspension containing the test compound is mixed with 100 μL of the reference agonist in the 96 well test plate. The resulting emission of light is recorded using the same luminometer as for agonist testing.
To standardize the emission of recorded light (determination of the “100% signal”) across plates and across different experiments, some of the wells contained 100 μM digitonin, a saturating concentration of ATP (20 μM) and a concentration of reference agonist equivalent to the EC50 obtained during test validation.
Agonist activity of a test compound can be expressed as a percentage of the activity of the reference agonist at its EC100 concentration. Antagonist activity of a test compound can be expressed as a percentage of the inhibition of reference agonist activity at its EC80) concentration.

Where a name gives a salt, the structure may show the parent alone.

Broadly, the IC50 is the midpoint of a concentration-inhibition curve. Low readings indicate inhibition by little substance, high ones a need for much substance. In turn, `COCC1(C(=O)N2CC(c3cc(C(F)(F)F)ccn3)C2)CCN(Cc2ccc3oc(=O)n(C)c3c2)C1` (stereo not drawn) [Example 28, 5-((3-(Methoxymethyl)-3-(3-(4-(trifluoromethyl)pyridin-2-yl)azetidine-1-carbonyl)pyrrolidin-1-yl)methyl)-3-methylbenzo[d]oxazol-2(3H)-one] had an IC50 of 0.2 to 1 µM. For “N-(3,5-Bis(trifluoromethyl)benzyl)-4-(cyclopropylmethyl)-1-((3-methyl-2-oxo-2,3-dihydrobenzo[d]thiazol-6-yl)methyl)piperidine-4-carboxamide TFA salt [Example 25]” the value was under 0.2 µM. For `Cn1c(=O)ccc2ccc(CN3CCC(CC4CC4)(C(=O)NCc4cc(C(F)(F)F)cc(C(F)(F)F)c4)CC3)cc21` [Example 1, N-(3,5-Bis(trifluoromethyl)benzyl)-4-(cyclopropylmethyl)-1-((1-methyl-2-oxo-1,2-dihydroquinolin-7-yl)methyl)piperidine-4-carboxamide] the value was under 0.2 µM; for `CC(C)CC1(C(=O)NCc2cc(C(F)(F)F)cc(C(F)(F)F)c2)CCN(Cc2ccc3c(c2)OCCN3C)CC1` [Example 17, N-(3,5-Bis(trifluoromethyl)benzyl)-4-isobutyl-1-((4-methyl-3,4-dihydro-2H-benzo[b][1,4]oxazin-7-yl)methyl)piperidine-4-carboxamide], over 1 µM.

For `O=C(NCc1cc(C(F)(F)F)cc(C(F)(F)F)c1)C1(CC2CC2)CCN(Cc2ccc3[nH]ncc3c2)C1` (stereo not drawn) [Example 21, 1-((1H-Indazol-5-yl)methyl)-N-(3,5-bis(trifluoromethyl)benzyl)-3-(cyclopro-pylmethyl)pyrrolidine-3-carboxamide dihydrochloride], the IC50 is under 0.2 µM. The value for `CN1C(=O)COc2ccc(CN3CCC(CC4CC4)(C(=O)NCc4cc(C(F)(F)F)cc(C(F)(F)F)c4)CC3)cc21` [Example 27, N-(3,5-Bis(trifluoromethyl)benzyl)-4-(cyclopropylmethyl)-1-((4-methyl-3-oxo-3,4-dihydro-2H-benzo[b][1,4]oxazin-6-yl)methyl)piperidine-4-carboxamide] was 0.2 to 1 µM. For `COCC1(C(=O)N2CCN(c3cc(C(F)(F)F)ccn3)CC2)CCN(Cc2ccc3oc(=O)n(C)c3c2)C1` (stereo not drawn) [Example 29, 5-((3-(Methoxymethyl)-3-(4-(4-(trifluoromethyl)pyridin-2-yl)piperazine-1-carbonyl)pyrrolidin-1-yl)methyl)-3-methylbenzo[d]oxazol-2(3H)-one] the value was 0.2 to 1 µM; for `Cn1c(=O)ccc2ccc(CN3CCC(C(=O)NCc4cc(C(F)(F)F)cc(C(F)(F)F)c4)(C4CC4)CC3)cc21` [Example 3, N-(3,5-Bis(trifluoromethyl)benzyl)-4-cyclopropyl-1-((1-methyl-2-oxo-1,2-dihydroquinolin-7-yl)methyl)piperidine-4-carboxamide], over 1 µM. For `Cn1c(=O)ccc2ccc(CN3CCC(CC4CC4)(C(=O)NCc4cc(C#N)cc(C(F)(F)F)c4)C3)cc21` (stereo not drawn) [Example 23, N-(3-Cyano-5-(trifluoromethyl)benzyl)-3-(cyclopropylmethyl)-1-((1-methyl-2-oxo-1,2-dihydroquinolin-7-yl)methyl)pyrrolidine-3-carboxamide TFA salt] the value was under 0.2 µM; for `O=C1COc2ccc(CCN3CCC(CC4CC4)(C(=O)NCc4cc(C(F)(F)F)cc(C(F)(F)F)c4)CC3)cc2N1` [Example 10, N-(3,5-Bis(trifluoromethyl)benzyl)-4-(cyclopropylmethyl)-1-(2-(3-oxo-3,4-dihydro-2H-benzo[b][1,4]oxazin-6-yl)ethyl)piperidine-4-carboxamide], over 1 µM; for `Cn1c(=O)ccc2ccc(CN3CCC(CC4CC4)(C(=O)NCc4cc(C(F)(F)F)cc(C(F)(F)F)c4)C3)cc21` (stereo not drawn) [Example 20, N-(3,5-Bis(trifluoromethyl)benzyl)-3-(cyclopropylmethyl)-1-((1-methyl-2-oxo-1,2-dihydroquinolin-7-yl)methyl)pyrrolidine-3-carboxamide], under 0.2 µM. Regarding `O=C(NCc1cc(C(F)(F)F)cc(C(F)(F)F)c1)C1(CC2CC2)CCN(Cc2ccc3ccc(=O)[nH]c3c2)CC1` [Example 11, N-(3,5-Bis(trifluoromethyl)benzyl)-4-(cyclopropylmethyl)-1-((2-oxo-1,2-dihydroquinolin-7-yl)methyl)piperidine-4-carboxamide], the IC50 was over 1 µM. For `Cn1c(=O)oc2ccc(CN3CCC(CC4CC4)(C(=O)NCc4cc(C(F)(F)F)cc(C(F)(F)F)c4)CC3)cc21` [Example 26, N-(3,5-Bis(trifluoromethyl)benzyl)-4-(cyclopropylmethyl)-1-((3-methyl-2-oxo-2,3-dihydrobenzo[d]oxazol-5-yl)methyl)piperidine-4-carboxamide] the value was 0.2 to 1 µM.

`O=C1COc2ccc(C(O)CN3CCC(CC4CC4)(C(=O)NCc4cc(C(F)(F)F)cc(C(F)(F)F)c4)CC3)cc2N1` (stereo not drawn) [Example 5, N-(3,5-Bis(trifluoromethyl)benzyl)-4-(cyclopropylmethyl)-1-(2-hydroxy-2-(3-oxo-3,4-dihydro-2H-benzo[b][1,4]oxazin-6-yl)ethyl)piperidine-4-carboxamide]: the half-maximal inhibitory concentration (IC50) is over 1 µM. On to `O=C(NCc1cc(C(F)(F)F)cc(C(F)(F)F)c1)C1(CC2CC2)CCN(Cc2ccc3cc[nH]c(=O)c3c2)CC1` [Example 8, N-(3,5-Bis(trifluoromethyl)benzyl)-4-(cyclopropylmethyl)-1-((1-oxo-1,2-dihydroisoquinolin-7-yl)methyl)piperidine-4-carboxamide], for which the IC50 is over 1 µM. The value for `O=C1COc2ccc(CN3CCC(CC4CC4)(C(=O)NCc4cc(C(F)(F)F)cc(C(F)(F)F)c4)C3)cc2N1` (stereo not drawn) [Example 22, N-(3,5-Bis(trifluoromethyl)benzyl)-3-(cyclopropylmethyl)-1-((3-oxo-3,4-dihydro-2H-benzo[b][1,4]oxazin-6-yl)methyl)pyrrolidine-3-carboxamide] was 0.2 to 1 µM; that for `CC(C)CC1(C(=O)NCc2cc(C(F)(F)F)cc(C(F)(F)F)c2)CCN(Cc2ccc3c(c2)nnn3C)CC1` [Example 18, N-(3,5-Bis(trifluoromethyl)benzyl)-4-isobutyl-1-((1-methyl-1H-benzo[d][1,2,3]triazol-5-yl)methyl)piperidine-4-carboxamide] was over 1 µM. Take `O=C(NCc1cc(C(F)(F)F)cc(C(F)(F)F)c1)C1(CC2CC2)CCN(Cc2cccc3c(=O)[nH]ccc23)CC1` [Example 9, N-(3,5-Bis(trifluoromethyl)benzyl)-4-(cyclopropylmethyl)-1-((1-oxo-1,2-dihydroisoquinolin-5-yl)methyl)piperidine-4-carboxamide]: the IC50 was 0.2 to 1 µM. The value for `Cn1c(=O)oc2ccc(CN3CCC(CC4CC4)(C(=O)NCc4cc(C#N)cc(C(F)(F)F)c4)C3)cc21` (stereo not drawn) [Example 24, N-(3-Cyano-5-(trifluoromethyl)benzyl)-3-(cyclopropylmethyl)-1-((3-methyl-2-oxo-2,3-dihydrobenzo[d]oxazol-5-yl)methyl)pyrrolidine-3-carboxamide HCl salt] was under 0.2 µM; that for `O=C(NCc1cc(C(F)(F)F)cc(C(F)(F)F)c1)C1(CC2CC2)CCN(Cc2ccc3nc[nH]c3c2)CC1` [Example 19, 1-((1H-Benzo[d]imidazol-6-yl)methyl)-N-(3,5-bis(trifluoromethyl)benzyl)-4-(cyclopropylmethyl)piperidine-4-carboxamide] was over 1 µM; that for `O=C1COc2ccc(CN3CCC(CC4CC4)(C(=O)NCc4cc(C(F)(F)F)cc(C(F)(F)F)c4)CC3)cc2N1` [Example 6, N-(3,5-Bis(trifluoromethyl)benzyl)-4-(cyclopropylmethyl)-1-((3-oxo-3,4-dihydro-2H-benzo[b][1,4]oxazin-6-yl)methyl)piperidine-4-carboxamide] was over 1 µM.
